Data reported in PubChem BioAssay (NCI).
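Compound exposure: 48 hours, 5 concentrations, 96-well plates. GI50: concentration for 50% inhibition of growth. At the TGI there is no net growth.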

Tests used:
Assay in all cases: inhibition of tumour cell growth, NCI panel, 48 h
HOP-62 NSCLC = tested on: HOP-62 NSCLC
MOLT-4 leukemia = tested on: MOLT-4 leukemia
NCI-H522 lung = tested on: NCI-H522 lung
SN12C renal = tested on: SN12C renal
T-47D breast = tested on: T-47D breast
U251 CNS = tested on: U251 CNS
UACC-257 melanoma = tested on: UACC-257 melanoma
UO-31 renal = tested on: UO-31 renal

Compound | GI50 (HOP-62 NSCLC) | TGI (HOP-62 NSCLC) | GI50 (MOLT-4 leukemia) | TGI (MOLT-4 leukemia) | GI50 (NCI-H522 lung) | TGI (NCI-H522 lung) | GI50 (SN12C renal) | TGI (SN12C renal) | GI50 (T-47D breast) | TGI (T-47D breast) | GI50 (U251 CNS) | TGI (U251 CNS) | GI50 (UACC-257 melanoma) | TGI (UACC-257 melanoma) | GI50 (UO-31 renal) | TGI (UO-31 renal)
Cc1ccc(S(=O)(=O)Nc2ccc(-c3cc(-c4cccc(F)c4)c(C#N)c(N)n3)cc2)cc1 | 4.25 µM | 17.2 µM | 3.2 µM | 30.2 µM | 1.69 µM | 4.91 µM | 2.2 µM | 7.11 µM | 1.48 µM | 3.66 µM | 2.75 µM | 9.62 µM | 1.93 µM | 4.24 µM | 1.32 µM | 2.59 µM
COCc1c(-c2ccc(NC(=O)Nc3cc(C(F)(F)F)ccc3F)c(F)c2)c2c(N)ncnn2c1CN1CCOCC1 | 2.05 µM | 7.1 µM | 2.07 µM | 9.8 µM | 1.76 µM | 4.05 µM | 1.39 µM | > 10 µM | 2.14 µM | 9.95 µM | 2.56 µM | > 10 µM | 3.43 µM | > 10 µM | 1.59 µM | > 10 µM
COC1=CC(=O)c2nc(Cl)ccc2C1=O | 1.94 µM | 3.4 µM | 0.807 µM | 7.77 µM | 1.7 µM | 3.57 µM | 1.72 µM | 3.19 µM |  |  | 1.66 µM | 3.03 µM | 1.68 µM | 3.12 µM | 1.63 µM | 3.12 µM
O=C(O)CCC(C(=O)O)N1C(=O)C2C3CCC(C3)C2C1=O (centres undefined) |  | > 100 µM |  | > 100 µM |  | > 100 µM |  | > 100 µM |  | > 100 µM |  | > 100 µM |  | > 100 µM |  | 
COc1ccc2c(c1OC(C)=O)C1=CC(=O)CCC13CCNC3C2 (centres undefined) |  | > 100 µM |  | > 100 µM |  | > 100 µM |  | > 100 µM |  | > 100 µM |  | > 100 µM |  | > 100 µM |  | > 100 µM
COc1cc2c(cc1C)NC(=O)/C2=C\c1c[nH]c2ccccc12 | 17.9 µM | 56.8 µM | 5.87 µM | 43.5 µM | 12.2 µM | 28.9 µM | 11.6 µM | 27.7 µM | 13.2 µM | 45.8 µM | 13.6 µM | 37.9 µM | 21.9 µM | 43.8 µM | 10.4 µM | 62.9 µM
COc1ccc(OC)c(/C=C/c2nc(SCc3ccccc3)n(-c3ccc(Cl)cc3)n2)c1 | 9.57 µM | > 100 µM | 6.51 µM | > 100 µM | 3.39 µM | 25 µM | 8.1 µM | > 100 µM | 11.5 µM | 84.6 µM | 5.35 µM | > 100 µM | > 100 µM | > 100 µM |  | 
CN1CCN(Cc2cc(NC(=O)c3cccc(C#Cc4cccc5[nH]nc(N)c45)c3)cc(C(F)(F)F)c2)CC1 | 1.55 µM | 3 µM |  |  | 1.74 µM | 3.34 µM | 1.66 µM | 3.13 µM |  |  | 1.81 µM | 3.22 µM | 1.83 µM | 3.39 µM | 1.71 µM | 3.16 µM
COc1cnc2c(c1)C(=O)c1c-2n(CCCN2CCNCC2)c(=O)c2cc([N+](=O)[O-])ccc12 | 0.065 µM | 0.572 µM | 0.0365 µM | 1.05 µM | 0.506 µM | 2.03 µM |  |  |  |  | 0.167 µM | 1.16 µM | 3.49 µM | 24.1 µM | 0.249 µM | 1.7 µM
Fc1ccc(Nc2nc3ccccc3c3occc23)cc1 | 2.31 µM | 13.8 µM |  |  | 13.7 µM | 27.8 µM | 12.9 µM | 27.2 µM | 0.135 µM |  | 12.3 µM | 24.7 µM | 13.8 µM | 28.3 µM | 12.4 µM | 27.8 µM
Cc1nccc2c3ccc(OCc4cn(-c5ccc(Cl)cc5)nn4)cc3n(CC(C)C)c12 |  |  | 1.14 µM | 6.54 µM | 4.17 µM | 15.5 µM | 3.69 µM | > 33.3 µM | 1.34 µM | 11.3 µM | 2.62 µM | 13.3 µM | 4.62 µM | 16.8 µM | 1.72 µM | 14 µM
CCCCCCCC(=O)[O][Hg][CH2]C1COC([CH2][Hg][O]C(=O)CCCCCCC)CO1 (centres undefined) | 17.2 µM | 30.9 µM | 2.26 µM | > 100 µM | 4.8 µM | > 100 µM | 15.7 µM | 30.5 µM | 13.1 µM | 46.9 µM | 15.2 µM | 28.6 µM |  |  |  | 
